Read-outs that look alike come from different tables or passages of the source.
Tests used:
Axl [1] = target: T1, Axl (Homo sapiens (Human), UniProt P30530); experiment: biochemical
Tyro3 [2] = target: T2, Tyro3 (Homo sapiens (Human), UniProt Q06418); experiment: biochemical
Axl [3] = target: T1, Axl; details: read-out: IC50 Axl
Tyro3 [4] = target: T2, Tyro3; details: read-out: IC50 Tyro3

T1 sequence (P30530 26-894 limits assumed): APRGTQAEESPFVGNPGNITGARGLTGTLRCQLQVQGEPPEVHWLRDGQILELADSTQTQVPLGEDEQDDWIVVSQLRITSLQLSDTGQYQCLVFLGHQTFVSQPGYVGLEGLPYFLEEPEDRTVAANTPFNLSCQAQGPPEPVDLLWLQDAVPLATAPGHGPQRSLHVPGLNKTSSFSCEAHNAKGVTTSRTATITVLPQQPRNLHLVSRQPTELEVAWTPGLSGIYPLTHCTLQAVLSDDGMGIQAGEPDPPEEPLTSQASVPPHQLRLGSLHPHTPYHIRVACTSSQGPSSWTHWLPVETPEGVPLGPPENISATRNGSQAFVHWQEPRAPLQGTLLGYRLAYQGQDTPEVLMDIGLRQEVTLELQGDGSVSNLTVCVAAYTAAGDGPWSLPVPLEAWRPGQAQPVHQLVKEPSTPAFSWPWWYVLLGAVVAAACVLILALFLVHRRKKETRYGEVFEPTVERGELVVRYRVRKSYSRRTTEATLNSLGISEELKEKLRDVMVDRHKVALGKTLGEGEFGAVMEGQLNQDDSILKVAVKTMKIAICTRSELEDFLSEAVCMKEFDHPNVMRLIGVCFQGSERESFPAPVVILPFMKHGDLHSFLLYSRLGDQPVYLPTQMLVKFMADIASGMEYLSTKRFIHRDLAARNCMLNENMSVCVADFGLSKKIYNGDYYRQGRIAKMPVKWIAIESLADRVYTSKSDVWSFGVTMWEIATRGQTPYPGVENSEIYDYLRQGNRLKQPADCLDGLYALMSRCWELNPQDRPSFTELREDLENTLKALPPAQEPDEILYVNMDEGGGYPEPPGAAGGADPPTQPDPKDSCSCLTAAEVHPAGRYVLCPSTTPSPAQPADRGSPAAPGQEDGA
T2 sequence (Q06418 41-890 limits assumed): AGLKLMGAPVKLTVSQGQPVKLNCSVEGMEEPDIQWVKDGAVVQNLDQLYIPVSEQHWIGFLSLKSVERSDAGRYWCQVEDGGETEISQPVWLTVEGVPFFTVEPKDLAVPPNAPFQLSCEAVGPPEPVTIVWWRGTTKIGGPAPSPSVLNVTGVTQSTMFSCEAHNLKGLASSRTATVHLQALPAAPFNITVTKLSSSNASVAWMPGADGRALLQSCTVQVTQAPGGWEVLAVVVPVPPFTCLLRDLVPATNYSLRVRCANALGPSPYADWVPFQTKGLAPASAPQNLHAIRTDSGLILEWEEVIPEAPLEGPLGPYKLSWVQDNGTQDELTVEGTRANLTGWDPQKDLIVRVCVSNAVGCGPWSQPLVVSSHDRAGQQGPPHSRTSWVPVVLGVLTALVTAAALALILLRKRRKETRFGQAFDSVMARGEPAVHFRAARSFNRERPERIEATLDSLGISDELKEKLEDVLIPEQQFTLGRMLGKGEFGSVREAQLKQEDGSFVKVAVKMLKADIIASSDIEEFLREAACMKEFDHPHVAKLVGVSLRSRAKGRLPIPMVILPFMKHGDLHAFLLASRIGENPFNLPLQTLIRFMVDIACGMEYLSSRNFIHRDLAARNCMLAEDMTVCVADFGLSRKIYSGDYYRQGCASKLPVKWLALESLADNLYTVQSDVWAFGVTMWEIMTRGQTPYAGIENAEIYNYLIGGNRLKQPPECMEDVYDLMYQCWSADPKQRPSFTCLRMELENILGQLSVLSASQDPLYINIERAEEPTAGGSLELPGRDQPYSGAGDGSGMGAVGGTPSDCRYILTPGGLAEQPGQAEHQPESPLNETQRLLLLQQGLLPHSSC

IC50 (Axl [3]) [nM] | IC50 (Tyro3 [4]) [nM] | SMILES | IC50 (Axl [1]) [nM] | IC50 (Tyro3 [2]) [nM]
960 | 494 | CCCCNc1ncc(C(=O)NCC2CCNCC2)c(N[C@H]2CC[C@H](O)CC2)n1 [UNC4287A] | – | –
1760 | 734 | CCCCNc1ncc(-c2cc(O)c(CN3CCCC3)cn2)c(N[C@H]2CC[C@H](O)CC2)n1 [UNC4230A] | – | –
30000 | 15100 | CCCCNc1ncc(-c2cc(Nc3cccc(-c4ccccc4)c3)ncn2)c(N[C@H]2CC[C@H](O)CC2)n1 [UNC4353A] | – | –
39 | 22 | CCCCNc1ncc(-c2ccc(CC3CCN(C(C)C)CC3)cn2)c(N[C@H]2CC[C@H](O)CC2)n1 [UNC4339A, trans-4-((2-(butylamino)-5-(5-((1-isopropylpiperidin-4-yl)methyl)pyridin-2-yl)pyrimidin-4-yl)amino)cyclohexan-1-ol] | – | –
572 | 253 | CCCCNc1ncc(C(=O)NCc2ccc3ccccc3n2)c(N[C@H]2CC[C@H](O)CC2)n1 [UNC4286A] | – | –
320 | 488 | CCCCNc1ncc(-c2ccc(C3=CCC(CN(C)C)CC3)cn2)c(N[C@H]2CC[C@H](O)CC2)n1 (some centres unmarked) [UNC4387A] | – | –
67 | 42 | CCCCNc1ncc(-c2ccc(CCN3CCCN(C)CC3)cn2)c(N[C@H]2CC[C@H](O)CC2)n1 [UNC4279A] | – | –
30000 | 867 | CCCCNc1ncc(-c2cc(Nc3cccc(C(C)(C)C)c3)ncn2)c(N[C@H]2CC[C@H](O)CC2)n1 [UNC4333A] | – | –
1800 | 1270 | CCCCNc1ncc(C(=O)NCc2ccc(-c3ccc4ccccc4c3)nc2)c(N[C@H]2CC[C@H](O)CC2)n1 [UNC4235A] | – | –
39 | 16 | CCCCNc1ncc(-c2cc(Cl)c(CN3CCCC3)cn2)c(N[C@H]2CC[C@H](O)CC2)n1 [UNC4222A] | – | –
196 | 276 | CCCCNc1ncc(C(=O)NCc2cncs2)c(N[C@H]2CC[C@H](O)CC2)n1 [UNC4344A] | – | –
602 | 256 | CCCCNc1ncc(C(=O)NCc2ccc(-c3c(C)noc3C)nc2)c(N[C@H]2CC[C@H](O)CC2)n1 [UNC4260A] | – | –
42 | 20 | CCCCNc1ncc(-c2ccc(C=C3CCN(C)CC3)cn2)c(N[C@H]2CC[C@H](O)CC2)n1 [UNC4338A] | – | –
158 | 121 | CCCCNc1ncc(-c2cc(Nc3cccc(OC)c3)ncn2)c(N[C@H]2CC[C@H](O)CC2)n1 [UNC4270A] | – | –
30000 | 889 | CCCCNc1ncc(-c2cc(Nc3cccc([N+](=O)[O-])c3)ncn2)c(N[C@H]2CC[C@H](O)CC2)n1 [UNC4322A] | – | –
1050 | 262 | CCCCNc1ncc(C(=O)NCC2CCN(C(C)=O)CC2)c(N[C@H]2CC[C@H](O)CC2)n1 [UNC4288A] | – | –
292 | 153 | CCCCNc1ncc(C(=O)NCC2CCN(C3CCCCC3)CC2)c(N[C@H]2CC[C@H](O)CC2)n1 [UNC4302A] | – | –
104 | 43 | CCCCNc1ncc(-c2ccc(CCN3CCCC3)cn2)c(N[C@H]2CC[C@H](O)CC2)n1 [UNC4221A] | – | –
664 | 333 | CCCCNc1ncc(C(=O)NCC2CCN(c3ccccc3)CC2)c(N[C@H]2CC[C@H](O)CC2)n1 [UNC4304A] | – | –
513 | 234 | CCCCNc1ncc(-c2cc(Nc3ccc(OC)cc3)ncn2)c(N[C@H]2CC[C@H](O)CC2)n1 [UNC4269A] | – | –
777 | 486 | C=CCN1CCC(CNC(=O)c2cnc(NCCCC)nc2N[C@H]2CC[C@H](O)CC2)CC1 [UNC4303A] | – | –

The remaining lines, values behind:

SMILES | IC50 (Axl [3]) [nM] | IC50 (Tyro3 [4]) [nM] | IC50 (Axl [1]) [nM] | IC50 (Tyro3 [2]) [nM]
CCCCNc1ncc(-c2ncc(COCc3ccccc3)s2)c(N[C@H]2CC[C@H](O)CC2)n1 [UNC2863A] | – | – | 2610 | 1220
CCCCNc1ncc(-c2cc(N3CCCCC3)ncn2)c(N[C@H]2CC[C@H](O)CC2)n1 [UNC3198A] | – | – | 6070 | 3740
CCCCNc1ncc(C(=O)NC2CCC2)c(N[C@H]2CC[C@H](O)CC2)n1 [UNC2737A] | – | – | 491 | 443
CCCCNc1ncc(-c2cc(NC3CC3)ncn2)c(N[C@H]2CC[C@H](O)CC2)n1 [UNC3193A] | – | – | 169 | 115
CCCCNc1ncc(-c2cc(N3CCCC3)ncn2)c(N[C@H]2CC[C@H](O)CC2)n1 [UNC3195A] | – | – | 188 | 230
CCCCNc1ncc(C(=O)NCCCCO)c(N[C@H]2CC[C@H](O)CC2)n1 [UNC1844A] | – | – | 1180 | 1080
CCCCNc1ncc(-c2ccc(C#CCN3CCN(C)CC3)cn2)c(N[C@H]2CC[C@H](O)CC2)n1 [UNC2793A] | – | – | 153 | 60
CCCCNc1ncc(-c2ccc(CN3CC(F)(F)C3)o2)c(N[C@H]2CC[C@H](O)CC2)n1 [UNC2900A] | – | – | 1850 | 370
CCCCNc1ncc(-c2cc(NC(C)C)ncn2)c(N[C@H]2CC[C@H](O)CC2)n1 [UNC3192A] | – | – | 86 | 77
CCCCNc1ncc(C(=O)NCCCN2CCOCC2)c(N[C@H]2CC[C@H](O)CC2)n1 [UNC1839A] | – | – | 951 | 1070
CCCCNc1ncc(-c2ccc(NC3CC3)nn2)c(N[C@H]2CC[C@H](O)CC2)n1 [UNC3069A] | 419 | 176 | – | –
CCCCNc1ncc(-c2cn(C(c3ccccc3)(c3ccccc3)c3ccccc3)cn2)c(N[C@H]2CC[C@H](O)CC2)n1 [UNC3117A] | 30000 | 30000 | – | –
CCCCNc1ncc(C(=O)NCc2ccc(-n3cccc3)cc2)c(N[C@H]2CC[C@H](O)CC2)n1 [UNC2880A] | 812 | 559 | – | –
CCCCNc1ncc(-c2cc(NC)ncn2)c(N[C@H]2CC[C@H](O)CC2)n1 [UNC3126A] | 364 | 109 | – | –
CCCCNc1ncc(-c2cncc(N3CCOCC3)n2)c(N[C@H]2CC[C@H](O)CC2)n1 [UNC3138A] | 1250 | 935 | – | –
CCCCNc1ncc(-c2ccc(NC(=O)C3CCCCC3)cn2)c(NC2CCC(O)CC2)n1 (centres unmarked) [UNC2712A] | 364 | 209 | – | –
CCCCNc1ncc(-c2nc(CO)cs2)c(N[C@H]2CC[C@H](O)CC2)n1 [UNC3135A] | 304 | 165 | – | –
CCCCNc1ncc(C(=O)NCc2ccc(-n3ccnc3C)cc2)c(N[C@H]2CC[C@H](O)CC2)n1 [UNC3004A] | 822 | 272 | – | –
CCCCNc1ncc(-c2ccc(CN3CCN[C@@H](C)C3)cn2)c(NC2CCC(O)CC2)n1 (some centres unmarked) [UNC4106A] | 47 | 22 | – | –
CCCCNc1ncc(-c2cncc(N3CCCC3)n2)c(N[C@H]2CC[C@H](O)CC2)n1 [UNC3115A] | 642 | 415 | – | –
CCCCNc1ncc(-c2ccc(CN3CCN[C@H](C)C3)cn2)c(NC2CCC(O)CC2)n1 (some centres unmarked) [UNC4113A] | 55 | 18 | – | –
CCCCNc1ncc(-c2ccc(NC(=O)C3CCC3)cn2)c(NC2CCC(O)CC2)n1 (centres unmarked) [UNC2790A] | 835 | 338 | – | –

SMILES | IC50 (Axl [3]) [nM] | IC50 (Tyro3 [4]) [nM] | IC50 (Axl [1]) [nM] | IC50 (Tyro3 [2]) [nM]
CCCCNc1ncc(C(=O)NCc2ccc(-n3ccnc3-c3ccccc3)cc2)c(N[C@H]2CC[C@H](O)CC2)n1 [UNC2957A] | 593 | 975 | – | –
CCCCNc1ncc(-c2cn(C)cn2)c(N[C@H]2CC[C@H](O)CC2)n1 [UNC3116A] | 10000 | 3940 | – | –
CCCCNc1ncc(C(=O)NC2CCN(Cc3ccc(N4CCOCC4)cc3)CC2)c(N[C@H]2CC[C@H](O)CC2)n1 [UNC2918A] | 667 | 145 | – | –
CCCCNc1ncc(-c2ccccn2)c(NCCCCCO)n1 [UNC2964A] | 5270 | 2770 | – | –
CCCCNc1ncc(C(=O)NCc2ccc(-n3cnc(CO)c3)cc2)c(N[C@H]2CC[C@H](O)CC2)n1 [UNC3183A] | 703 | 372 | – | –
CCCCNc1ncc(-c2ccccn2)c(Nc2ccc(O)cc2)n1 [UNC2998A] | 30000 | 363 | – | –
CCCCNc1ncc(-c2cnc(N)c(OC)n2)c(N[C@H]2CC[C@H](O)CC2)n1 [UNC3043A] | 2310 | 1640 | – | –
CCCCNc1ncc(-c2ccc(C(=O)O)nn2)c(N[C@H]2CC[C@H](O)CC2)n1 [UNC3042A] | 558 | 192 | – | –
CCCCNc1ncc(-c2cc(NC(=O)c3ccc(F)cc3)ncn2)c(N[C@H]2CC[C@H](O)CC2)n1 [UNC3182A] | 30000 | 30000 | – | –
CCCCNc1ncc(-c2cnc(SC)cn2)c(N[C@H]2CC[C@H](O)CC2)n1 [UNC3074A] | 754 | 255 | – | –
CCCCNc1ncc(-c2ccc(C3=CCN(C(C)C)CC3)cn2)c(N[C@H]2CC[C@H](O)CC2)n1 [UNC4358A] | 24 | 42 | – | –
O[C@H]1CC[C@H](Nc2nc(NCCC3CC3)ncc2-c2ccc(CN3CCCC3)cn2)CC1 [UNC4197A] | 43 | 24 | – | –
CCCCNc1ncc(-c2ccc(N3CCCC3)nn2)c(N[C@H]2CC[C@H](O)CC2)n1 [UNC3044A] | 912 | 377 | – | –
CCCCNc1ncc(-c2ccc(OC)nn2)c(N[C@H]2CC[C@H](O)CC2)n1 [UNC3049A] | 4440 | 221 | – | –
CCCCNc1ncc(C(=O)NCc2ccc(-n3cccn3)cc2)c(N[C@H]2CC[C@H](O)CC2)n1 [UNC2744A] | 277 | 172 | – | –
CCCCNc1ncc(-c2ncc(CN3CCN(C)CC3)s2)c(N[C@H]2CC[C@H](O)CC2)n1 [UNC3121A] | 96 | 71 | – | –
CCCCNc1ncc(-c2ccc(NC(=O)c3ccccc3)cn2)c(NC2CCC(O)CC2)n1 (centres unmarked) [UNC2713A] | 522 | 325 | – | –
CCCCNc1ncc(C(=O)NCC2CCCCC2)c(N[C@H]2CC[C@H](O)CC2)n1 [UNC2603A] | 1120 | 506 | – | –
CCCCNc1ncc(-c2ccc(C3(N4CCOCC4)CCCC3)cn2)c(NC2CCC(O)CC2)n1 (centres unmarked) [UNC3667A] | 47 | 7.4 | – | –
CCCCNc1ncc(-c2ccc(CNC34CC5CC(CC(C5)C3)C4)cn2)c(N[C@H]2CC[C@H](O)CC2)n1 [UNC4166A] | 13 | 9.4 | – | –
CCCCNc1ncc(-c2cc(SC)nc(C)n2)c(N[C@H]2CC[C@H](O)CC2)n1 [UNC3130A] | 1090 | 384 | – | –
